Measurements published in article PMC9151520 (Archives of Toxicology, 2022).
“And” between values parts separate entries of the source, which are not always exact repeats. Equal values may be shown once. Read-outs that look alike come from different tables or passages of the source.

How the values were obtained:
[1] = system: p53 signaling (p53RE-bla HCT-116 cells); experiment: cells; format: cell-based
[2] = system: p53 signaling (p53RE-bla HCT-116 cells)
[3] = system: p53 signaling (p53RE-bla HCT-116 cells); remark: listed apart in the source
[4] = system: p53RE-bla HCT-116 cells
[5] = Homo sapiens, HCT-116, read-out: p53 activation EC50, cherry pick confirmation
[6] = Homo sapiens, HCT-116, read-out: p53 activation EC50, primary screening
[7] = Homo sapiens, HCT-116, read-out: p53 activation efficacy, cherry pick confirmation
[8] = Homo sapiens, HCT-116, read-out: p53 activation efficacy, primary screening
[9] = read-out: p53 activation EC50, cherry pick confirmation
[10] = read-out: p53 activation EC50, primary screening
[11] = read-out: EC50, p53 activation, primary screening

Row | Molecule | p53 activation EC50, cherry pick confirmation [2] | p53 activation EC50, primary screening [2] | p53 activation efficacy, cherry pick confirmation [2] | p53 activation efficacy, primary screening [2] | p53 activation EC50, cherry pick confirmation [3] | p53 activation EC50, primary screening [3] | p53 activation efficacy, cherry pick confirmation [3] | p53 activation efficacy, primary screening [3] | Viability EC50, cherry pick confirmation [4] | Viability EC50, primary screening [4] | Viability efficacy, cherry pick confirmation [4] | Viability efficacy, primary screening [4] | p53 activation efficacy, cherry pick confirmation [1] | p53 activation efficacy, primary screening [1] | EC50 [1, 9] | also measured
1 | CCC[S+]([O-])c1ccc2[nH]c(NC(=O)OC)nc2c1 (stereo not shown) [Albendazole oxide] | inactive | inactive | inactive | inactive | inactive | inactive | inactive | inactive | inactive | inactive | inactive | inactive |  |  |  | EC50 [1, 5]: 20.5 µM; EC50 [1, 6]: 12.8 µM; Emax [1, 7]: 37.2%; Emax [1, 8]: 33.8%
2 | Cl.Nc1ccc2cc3ccc(N)cc3nc2c1 [Proflavin hydrochloride] | inactive | inactive | inactive | inactive | inactive | inactive | inactive | inactive | inactive | inactive | inactive | inactive | 356.887 | 211.641 | 3.65 µM | EC50 [1, 10]: 2.9 µM
3 | COC(=O)c1nc(Cl)c(Cl)nc1N |  |  |  |  |  |  |  |  |  |  |  |  |  |  |  | Efficacy, p53 activation, cherry pick confirmation [1]: 118.088; Efficacy, p53 activation, primary screening [1]: 51.0133; EC50 ([1]; read-out: EC50, p53 activation, cherry pick confirmation): 24 µM; EC50 [1, 11]: 21.5 µM; EC50, p53 activation, cherry pick confirmation [2]: inactive; Efficacy, p53 activation, cherry pick confirmation [2]: inactive; EC50 [2, 11]: 22.4 µM; EC50, p53 activation, cherry pick confirmation [3]: inactive; EC50, p53 activation, primary screening [3]: inactive; Efficacy, p53 activation, cherry pick confirmation [3]: inactive; EC50, viability, cherry pick confirmation [4]: inactive; EC50, viability, primary screening [4]: inactive; Efficacy, viability, cherry pick confirmation [4]: inactive; Efficacy, viability, primary screening [4]: inactive
4 | CNC(=O)Oc1ccccc1OC(C)C [Propoxur] |  |  |  |  |  |  |  |  |  |  |  |  |  |  |  | p53 activation EC50 [1]: inactive; p53 activation efficacy [1]: inactive; p53 activation EC50 [2]: inactive; p53 activation EC50 [3]: inactive; Viability EC50 [4]: inactive; Viability efficacy [4]: inactive
5 | N=C1NC(=N)c2cc3ccccc3cc21 [1,3-Diiminobenz(f)isoindoline] |  |  |  |  |  |  |  |  |  |  |  |  |  |  |  | p53 activation efficacy [1]: 115.412 and 121.93; EC50 ([1]; read-out: p53 activation EC50): 23.7 µM and 25.2 µM; p53 activation EC50 [2]: inactive; p53 activation EC50 [3]: inactive; Viability EC50 [4]: inactive
6 | O=c1c(O)c(-c2ccc(O)c(O)c2)oc2cc(O)cc(O)c12 [Quercetin] |  |  |  |  |  |  |  |  |  |  |  |  |  |  |  | EC50, p53 activation, cherry pick confirmation [1]: inactive; Efficacy, p53 activation, cherry pick confirmation [1]: inactive; EC50 ([1]; Homo sapiens, HCT-116, read-out: EC50, p53 activation, primary screening): 45.8 µM; Emax ([1]; Homo sapiens, HCT-116, read-out: Efficacy, p53 activation, primary screening): 31.7%; EC50, p53 activation, cherry pick confirmation [2]: inactive; EC50, p53 activation, primary screening [2]: inactive; Efficacy, p53 activation, cherry pick confirmation [2]: inactive; Efficacy, p53 activation, primary screening [2]: inactive; EC50, p53 activation, cherry pick confirmation [3]: inactive; EC50, p53 activation, primary screening [3]: inactive; Efficacy, p53 activation, cherry pick confirmation [3]: inactive; Efficacy, p53 activation, primary screening [3]: inactive; EC50, viability, cherry pick confirmation [4]: inactive; EC50, viability, primary screening [4]: inactive; Efficacy, viability, cherry pick confirmation [4]: inactive; Efficacy, viability, primary screening [4]: inactive
7 | Nc1ncn([C@@H]2O[C@H](CO)[C@@H](O)[C@H]2O)c(=O)n1 [5-Azacytidine] | inactive | inactive | inactive | inactive | inactive | inactive | inactive | inactive | inactive | inactive | inactive | inactive | 71.649 | 59.244 | 17.7 µM | EC50 [1, 10]: 11.2 µM
8 | Acriflavine hydrochloride | inactive | inactive | inactive | inactive | inactive | inactive | inactive | inactive | inactive | inactive | inactive | inactive | 281.114 | 193.527 | 2.46 µM | EC50 [1, 10]: 5.41 µM
9 | CNC(=O)c1ccccc1Sc1ccc2c(/C=C/c3ccccn3)n[nH]c2c1 [Axitinib] | inactive | inactive | inactive | inactive | inactive | inactive | inactive | inactive | inactive | inactive | inactive | inactive |  |  |  | EC50 [1, 6]: 1.41 µM; Emax [1, 7]: 56%; Emax [1, 8]: 83.4%
10 | CC(C)CP(=S)([S-])CC(C)C.[Na+] [Sodium diisobutyldithiophosphinate] | inactive |  | inactive |  | inactive |  | inactive |  | inactive | inactive | inactive | inactive | 36.227 | inactive | 2.22 µM | p53 activation EC50, primary screening [1]: inactive
11 | NC(=O)c1ncn([C@@H]2O[C@H](CO)[C@@H](O)[C@H]2O)n1 [Ribavirin] | inactive | inactive | inactive | inactive | inactive | inactive | inactive | inactive | inactive | inactive | inactive | inactive |  |  |  | EC50 [1, 5]: 10.8 µM; EC50 [1, 6]: 24.3 µM; Emax [1, 7]: 43.7%; Emax [1, 8]: 31.4%
12 | Oc1ccc(OCc2ccccc2)cc1 [4-(Benzyloxyl)phenol] | inactive | inactive | inactive | inactive | inactive | inactive | inactive | inactive | inactive | inactive | inactive | inactive |  |  |  | EC50 [1, 5]: 14 µM; EC50 [1, 6]: 18.6 µM; Emax [1, 7]: 39%; Emax [1, 8]: 33.5%
13 | CCN(CC)C(=O)C(Cl)=C(C)OP(=O)(OC)OC [Phosphamidon] |  |  |  |  |  |  |  |  |  |  |  |  |  |  |  | p53 activation EC50, No MS [1]: inactive; p53 activation Efficacy, No MS [1]: inactive; EC50 [2]: 3.22 µM; EC50 ([2]; read-out: p53 activation EC50, RLM): 2.35 µM and 3.43 µM; p53 activation EC50, HLM [3]: inactive; EC50 ([3]; read-out: p53 activation EC50, HLM): 5.82 µM; Viability EC50, HLM [4]: inactive; Viability EC50, No MS [4]: inactive; Viability EC50, RLM [4]: inactive; Viability Efficacy, No MS [4]: inactive
14 | O=c1n(CC2CO2)c(=O)n(CC2CO2)c(=O)n1CC1CO1 (stereo not shown) [Tris(2,3-epoxypropyl)isocyanurate] | inactive | inactive | inactive | inactive | inactive | inactive | inactive | inactive | inactive | inactive | inactive | inactive | 90.7567 | 99.0367 | 27.9 µM | EC50 [1, 10]: 23.7 µM
